Assay: logP determination by retention times (calibration with alkan-2-ones)
Details: * HPLC reversed-phase C18, 40° C., mobile phase 0.1% aqueous formic acid and acetonitrile, linear gradient 10% to 95% acetonitrile

In the case of CNc1nc(C)c(-c2ccnc(Nc3ccc(O)cc3)n2)s1 [Example 746, 4-({4-[4-methyl-2-(methylamine)-1,3-thiazol-5-yl]pyrimidin-2-yl}amino)phenol], the logP is reported as 1.11*.
With CNc1nc(C)c(-c2ccnc(Nc3ccc(OC(C)=O)cc3)n2)s1 [Example 754, 4-({4-[4-methyl-2-(methylamine)-1,3-thiazol-5-yl]pyrimidin-2-yl}amino)phenylacetate] the logP was 1.73*.
With Cc1nc(N(C)C)sc1-c1ccnc(Nc2ccc(N3CCCC3=O)cc2)n1 [Example 761, 1-[4-({4-[2-(dimethylamine)-4-methyl-1,3-thiazol-5-yl]pyrimidin-2-yl}amino)phenyl]pyrrolidin-2-one] the logP was 1.6*.
In the case of CC(=O)Nc1cccc(Nc2nccc(-c3sc(N(C)C)nc3C)n2)c1 [Example 762, N-[3-({4-[2-(dimethylamine)-4-methyl-1,3-thiazol-5-yl]pyrimidin-2-yl}amino)phenyl]acetamide], the logP is reported as 1.42*.

Same assay, conditions: logP, * HPLC reversed-phase C18, 40° C., mobile phase 0.1% aqueous formic acid and acetonitrile, linear gradient 10% to 95% acetonitrile

First: COCC(C)Nc1nc(C)c(-c2ccnc(Nc3ccc(C(C)=O)cc3)n2)s1 (centres unmarked) [Example 729, 1-{4-[(4-{2-[(2-methoxy-1-methylethyl)amino]-4-methyl-1,3-thiazol-5-yl}pyrimidin-2-yl)amino]phenyl}ethanone]
Second: COCC(C)Nc1nc(C)c(-c2ccnc(Nc3ccc(N)cc3)n2)s1 (centres unmarked) [Example 737, N-(4-{2-[(2-methoxy-1-methylethyl)amino]-4-methyl-1,3-thiazol-5-yl}pyrimidin-2-yl)benzene-1,4-diamine]
The chromatographic logP of the first is higher: 1.92 for the first, 1.68 for the second.

First: Cc1nc(N2CCOCC2)sc1-c1ccnc(Nc2ccccc2)n1 [Example 731, 4-(4-methyl-2-morpholin-4-yl-1,3-thiazol-5-yl)-N-phenylpyrimidine-2-amine]
Second: Cc1nc(N2CCOCC2)sc1-c1ccnc(Nc2cccc(Cl)c2)n1 [Example 745, N-(3-chlorophenyl)-4-(4-methyl-2-morpholin-4-yl-1,3-thiazol-5-yl)pyrimidine-2-amine]
The chromatographic logP of the first is lower: 2.25 for the first, 2.99 for the second.

First: CCc1nc(C)c(-c2ccnc(N(C(=O)OC)c3ccccc3)n2)s1 [Example 732, methyl-[4-(2-ethyl-4-methyl-1,3-thiazol-5-yl)pyrimidin-2-yl]phenylcarbamate]
Second: CCCc1nc(C)c(-c2ccnc(Nc3ccccc3)n2)s1 [Example 766, 4-(4-methyl-2-propyl-1,3-thiazol-5-yl)-N-phenylpyrimidine-2-amine]
The chromatographic logP of the first is lower: 2.59 for the first, 3.49 for the second.

Compared with CCCC(=O)c1ccc(Nc2nccc(-c3sc(CC)nc3C)n2)cc1 [Example 733, 1-(4-{[4-(2-ethyl-4-methyl-1,3-thiazol-5-yl)pyrimidin-2-yl]amino}phenyl)butan-1-one], COCCCOC(=O)c1ccc(Nc2nccc(-c3sc(COC)nc3C)n2)cc1 [Example 765, 3-methoxypropyl-4-({4-[2-(methoxymethyl)-4-methyl-1,3-thiazol-5-yl]pyrimidin-2-yl}amino)benzoate] is lower in chromatographic logP: 3.5 for the first, 2.63 for the second.

Going from CC(=O)c1cccc(Nc2nccc(-c3sc(-c4cccnc4)nc3C)n2)c1 [Example 734, 1-(3-{[4-(4-methyl-2-pyridin-3-yl-1,3-thiazol-5-yl)pyrimidin-2-yl]amino}phenyl)ethanone] to COCCCNc1nc(C)c(-c2ccnc(Nc3cccc(C(C)=O)c3)n2)s1 [Example 738, 1-{3-[(4-{2-[(3-methoxypropyl)amino]-4-methyl-1,3-thiazol-5-yl}pyrimidin-2-yl)amino]phenyl}ethanone], the chromatographic logP falls from 2.56 to 1.75.

COc1cc(Nc2nccc(-c3sc(N4CCOCC4)nc3C)n2)cc(OC)c1OC [Example 735, 4-(4-methyl-2-morpholin-4-yl-1,3-thiazol-5-yl)-N-(3,4,5-trimethoxyphenyl)pyrimidine-2-amine] and CC(=O)c1cccc(Nc2nccc(-c3sc(N4CCOCC4)nc3C)n2)c1 [Example 736, 1-(3-{[4-(4-methyl-2-morpholin-4-yl-1,3-thiazol-5-yl)pyrimidin-2-yl]amino}phenyl)ethanone] are within 0.2 log units of each other in chromatographic logP: 2.07 for the first, 2.16 for the second.

Going from CCc1nc(C)c(-c2ccnc(Nc3cncc(C)c3)n2)s1 [Example 747, 4-(2-ethyl-4-methyl-1,3-thiazol-5-yl)-N-(5-methylpyridin-3-yl)pyrimidine-2-amine] to CCc1nc(C)c(-c2ccnc(Nc3ccc(F)c(F)c3)n2)s1 [Example 755, N-(3,4-difluorophenyl)-4-(2-ethyl-4-methyl-1,3-thiazol-5-yl)pyrimidine-2-amine], the chromatographic logP rises from 1.41 to 3.44.

Compared with CCc1nc(C)c(-c2ccnc(Nc3ccc(N4CCCC4=O)cc3)n2)s1 [Example 748, 1-(4-{[4-(2-ethyl-4-methyl-1,3-thiazol-5-yl)pyrimidin-2-yl]amino}phenyl)pyrrolidin-2-one], Cc1nc(C)c(-c2ccnc(Nc3ccc(N4CCCC4=O)cc3)n2)s1 [Example 749, 1-(4-{[4-(2,4-dimethyl-1,3-thiazol-5-yl)pyrimidin-2-yl]amino}phenyl)pyrrolidin-2-one] is lower in chromatographic logP: 2.24 for the first, 1.99 for the second.

Going from COCCNc1nc(C)c(-c2ccnc(Nc3ccc(F)c(C)c3)n2)s1 [Example 750, N-(4-fluoro-3-methylphenyl)-4-{2-[(2-methoxyethyl)amino]-4-methyl-1,3-thiazol-5-yl}pyrimidine-2-amine] to COCCNc1nc(C)c(-c2ccnc(Nc3ccc(C(C)=O)cc3)n2)s1 [Example 751, 1-{4-[(4-{2-[(2-methoxyethyl)amino]-4-methyl-1,3-thiazol-5-yl}pyrimidin-2-yl)amino]phenyl}ethanone], the chromatographic logP falls from 2.04 to 1.72.

Going from COCCNc1nc(C)c(-c2ccnc(Nc3ccc(N4CCCC4=O)cc3)n2)s1 [Example 752, 1-{4-[(4-{2-[(2-methoxyethyl)amino]-4-methyl-1,3-thiazol-5-yl}pyrimidin-2-yl)amino]phenyl}pyrrolidin-2-one] to COCc1nc(C)c(-c2ccnc(Nc3ccc(O)cc3)n2)s1 [Example 763, 4-({4-[2-(methoxymethyl)-4-methyl-1,3-thiazol-5-yl]pyrimidin-2-yl}amino)phenol], the chromatographic logP rises from 1.51 to 1.8.

Going from Cc1nc(C)c(-c2ccnc(Nc3ccc(F)c(F)c3)n2)s1 [Example 756, N-(3,4-difluorophenyl)-4-(2,4-dimethyl-1,3-thiazol-5-yl)pyrimidine-2-amine] to CCc1nc(C)c(-c2ccnc(Nc3ccc(F)cc3F)n2)s1 [Example 760, N-(2,4-difluorophenyl)-4-(2-ethyl-4-methyl-1,3-thiazol-5-yl)pyrimidine-2-amine], the chromatographic logP rises from 2.99 to 3.27.

Compared with Cc1nc(C(F)F)c(-c2ccnc(Nc3cccc(Cl)c3)n2)s1 [Example 757, N-(3-chlorophenyl)-4-[4-(difluoromethyl)-2-methyl-1,3-thiazol-5-yl]pyrimidine-2-amine], Cc1nc(C(F)F)c(-c2ccnc(Nc3ccc(CNC(=O)OC(C)(C)C)cc3)n2)s1 [Example 758, tert-butyl-[4-({4-[4-(difluoromethyl)-2-methyl-1,3-thiazol-5-yl]pyrimidin-2-yl}amino)benzyl]carbamate] is higher in chromatographic logP: 1.41 for the first, 3.2 for the second.

COCc1nc(C)c(-c2ccnc(Nc3cc(OC)cc(OC)c3)n2)s1 [Example 764, N-(3,5-dimethoxyphenyl)-4-[2-(methoxymethyl)-4-methyl-1,3-thiazol-5-yl]pyrimidine-2-amine] gave a chromatographic logP of 2.73.
